Laboratory results published in patent publication US8367695B2, “Condensed tetrahydroquinoline derivative and use thereof for medical purposes” (Mitsubishi Tanabe Pharma Corporation, priority 2007, dated 2013).
pKi: −log10 of the molar value. Read-outs that look alike come from different tables or passages of the source.

Biological target: T1, human recombinant progesterone receptor-B (PRB) (Homo sapiens, UniProt P06401)
T1 construct: purchased Invitrogen (Carlsbad, Calif.)
T1 sequence (P06401 1-933): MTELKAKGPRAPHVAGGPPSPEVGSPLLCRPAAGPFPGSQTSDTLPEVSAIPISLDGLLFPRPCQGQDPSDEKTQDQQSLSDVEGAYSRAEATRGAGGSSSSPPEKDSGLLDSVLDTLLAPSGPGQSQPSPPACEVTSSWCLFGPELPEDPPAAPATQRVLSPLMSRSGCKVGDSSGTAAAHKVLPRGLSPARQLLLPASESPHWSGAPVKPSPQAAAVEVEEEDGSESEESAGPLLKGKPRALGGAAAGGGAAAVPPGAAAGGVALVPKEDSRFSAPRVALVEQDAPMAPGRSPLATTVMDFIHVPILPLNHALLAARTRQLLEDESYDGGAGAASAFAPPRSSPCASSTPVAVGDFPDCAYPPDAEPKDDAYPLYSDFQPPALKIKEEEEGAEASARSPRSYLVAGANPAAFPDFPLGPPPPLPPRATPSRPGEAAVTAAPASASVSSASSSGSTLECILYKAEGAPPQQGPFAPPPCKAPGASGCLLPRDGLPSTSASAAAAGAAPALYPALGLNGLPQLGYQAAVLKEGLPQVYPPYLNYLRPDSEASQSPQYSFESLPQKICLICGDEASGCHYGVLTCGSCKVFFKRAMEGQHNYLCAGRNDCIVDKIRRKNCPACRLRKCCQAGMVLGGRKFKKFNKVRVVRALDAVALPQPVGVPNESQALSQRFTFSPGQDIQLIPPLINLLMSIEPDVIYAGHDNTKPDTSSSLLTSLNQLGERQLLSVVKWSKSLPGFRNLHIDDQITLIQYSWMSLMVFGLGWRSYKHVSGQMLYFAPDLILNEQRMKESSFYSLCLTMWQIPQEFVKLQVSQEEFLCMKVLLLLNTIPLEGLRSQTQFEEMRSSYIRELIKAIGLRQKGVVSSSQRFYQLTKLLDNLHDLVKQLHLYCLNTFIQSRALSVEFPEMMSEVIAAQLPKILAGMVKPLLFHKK
Test: Radioactive ligand binding test, PRB cytosol, [3H]-Prog
Conditions: for Ki: [3H]-Prog about 5 nM, PRB cytosol, 4° C., Cheng-Prusoff, Kd about 3.5 nM, read-out: PR (Ki: nM)
Excerpt: Radioactive Ligand Binding Test Using Cytosols of Human Glucocorticoids Receptor, Progesterone Receptor and Mineralocorticoid Receptor
The procedures described in Neuroimmunomodulation (1994, 1, p. 66-73) and Invest. Opthalmol. Vis. Sci. (1996, 37, p. 805-813) were modified and used. In brief, cytosol preparations of human recombinant glucocorticoids receptor (GR) and human recombinant progesterone receptor-B (PRB) were purchased from Invitrogen (Carlsbad, Calif.), and a cytosol preparation of human recombinant mineralocorticoid receptor (MR) was prepared by our company (Yokohama, JP). MR cDNA was cloned into a baculovirus expression vector and expressed in insect cell Sf9. The procedures described in J. Biol. Chem. (1991, 266, p. 18072-18081), Proc. Natl. Acad. Sci. USA (1991, 88, p. 10681-10685) and Bac-to-Bac (registered trade mark) Baculovirus Expression Systems technical manual (Invitrogen) were partly modified and used as the procedures for MR gene cloning up to preparation of recombinant receptor cytosol. [^3H]-Dexamethasone (Dex, specific activity 91.0 Ci/mmol) was purchased from GE Healthcare (Buckinghamshire, UK), and [^3H]-progesterone (Prog, specific activity 103 Ci/mmol) and [3H]-aldosterone (Ald, specific activity 87.9 Ci/mmol) were each purchased from PerkinElmer (Boston, Mass.). Polypropylene round-bottomed 96 well plate was obtained from ABgene (Epsom, UK). Dimethyl Sulfoxide (DMSO) and hydrochloric acid were obtained from Kanto Chemical (TOKYO, JP). Trizma Base (Tris), Bovine Serum Albumin (BSA) and Sodium tungstate dihydrate were obtained from Sigma Chemicals (St. Louis, Mo.). Dithiothreitol (DTT) and Dextran 70 were obtained from GE Healthcare (Buckinghamshire, UK). Glycerol was obtained from Junsei Chemical (TOKYO, JP). Norit® “SX-II” was obtained from Wako Pure Chemical Industries, Ltd. (Osaka, JP). MeltiLex™, A, Printed Filtermat A and Sample Bag were obtained from PerkinElmer (Boston, Mass.).
As a buffer for GR binding assay, 25 mM Tris-HCl (4° C., pH 7.4)/1 mM EDTA·2Na/1 mM DTT/0.1% BSA was prepared and used. As buffers for PRB and MR binding assay, 10 mM Tris-HCl (4° C., pH 7.4)/1 mM DTT/0.1% BSA/10% glycerol and 20 mM Tris-HCl (4° C., pH 7.4)/1 mM EDTA·2Na/10% glycerol/20 mM sodium tungstate were respectively prepared and used. As dextran-coated charcoal (DCC) for B/F separation, 0.75% Dextran 70/0.75% Norit® SX-II/10 mM Tris-HCl (4° C., pH 7.4) was prepared and used.
Compound storage solutions (5-20 mM) were prepared using DMSO. The storage solutions were diluted with DMSO to 0.1 mM (for GR) and 0.3 mM (for PRB and MR), and further diluted 20-fold with distilled water to give solutions. Then, the preparations were diluted to each concentration with 5% DMSO solution. 1% DMSO was present at the time of the binding assay.
In the case of PRB binding assay, [^3H]-Prog (about 5 nM), PRB cytosol (concentration of function receptor: about 4 pmol/mL), a test compound and a binding buffer were mixed in a total volume of 50 μL, and the mixture was stood at 4° C. for 30 min or longer. A specific binding was defined to be the difference in the [^3H]-Prog binding between the presence and the absence of 1 μM unlabeled Prog.
After the reaction, 50 μL of DCC was added to each well and blended. Thereafter, the mixture was stood at 4° C. for 10 min. The plate was applied to high-speed cooling centrifuge under the conditions of 4° C., 2000 rpm, 5 min to perform B/F separation. A given amount of the supernatant was recovered, which was spotted on Filtermat A of 96 well format (PerkinElmer) and rapidly dried at a high temperature. Then, solid scintillator MeltiLex A (PerkinElmer) was melted on Filtermat A. The mixture was placed in a Sample Bag (PerkinElmer), and the level of radioactivity was measured by plate reader 1450 Micro Beta TRILUX (PerkinElmer).
Measurement of Inhibition Constant (Ki)

SMILES: Cc1noc(C)c1-c1cc2c(c3c1CCC3)NC(C)(C)C(=O)C2(C)C [Example 2, 6-(3,5-dimethylisoxazol-4-yl)-2,2,4,4-tetramethyl-2,3,4,7,8,9-hexahydro-1H-cyclopenta[h]quinolin-3-one]
- Ki: > 1250 nM

SMILES: Cc1nnn(C)c1-c1cc2c(c3c1CCC3)NC(C)(C)C(=O)C2(C)C [Example 4, 6-(3,5-dimethyl-3H-[1,2,3]triazol-4-yl)-2,2,4,4-tetramethyl-2,3,4,7,8,9-hexahydro-1H-cyclopenta[h]quinolin-3-one]
- Ki: > 1250 nM

SMILES: CC1(C)Nc2c(cc(-c3ccnc4cc[nH]c34)c3c2CCC3)C(C)(C)C1=O [Example 13, 2,2,4,4-tetramethyl-6-(1H-pyrrolo[3,2-b]pyridin-7-yl)-2,3,4,7,8,9-hexahydro-1H-cyclopenta[h]quinolin-3-one]
- Ki: > 1250 nM

SMILES: CC1(C)Nc2c(cc(-c3cccc4nccn34)c3c2CCC3)C(C)(C)C1=O [Example 14, 6-(imidazo[1,2-a]pyridin-5-yl)-2,2,4,4-tetramethyl-2,3,4,7,8,9-hexahydro-1H-cyclopenta[h]quinolin-3-one]
- Ki: > 1250 nM

SMILES: CC1(C)Nc2c(cc(-c3cccc4nncn34)c3c2CCC3)C(C)(C)C1=O [Example 17, 2,2,4,4-tetramethyl-6-([1,2,4]triazolo[4,3-a]pyridin-5-yl)-2,3,4,7,8,9-hexahydro-1H-cyclopenta[h]quinolin-3-one]
- pKi: < 5.90

SMILES: CC1(C)Nc2c(cc(-c3cccc4ncccc34)c3c2CCC3)C(C)(C)C1=O [Example 20, 2,2,4,4-tetramethyl-6-(quinolin-5-yl)-2,3,4,7,8,9-hexahydro-1H-cyclopenta[h]quinolin-3-one]
- Ki: > 1250 nM

SMILES: CC1(C)Nc2c(cc(-c3ccnc4ncccc34)c3c2CCC3)C(C)(C)C1=O [Example 21, 2,2,4,4-tetramethyl-6-([1,8]naphthyridin-4-yl)-2,3,4,7,8,9-hexahydro-1H-cyclopenta[h]quinolin-3-one]
- Ki: > 1250 nM

SMILES: C=C1C(C)(C)Nc2c(cc(-c3c(C)ncn3C)c3c2CCC3)C1(C)C [Example 29, 6-(3,5-dimethyl-3H-imidazol-4-yl)-2,2,4,4-tetramethyl-3-methylene-2,3,4,7,8,9-hexahydro-1H-cyclopenta[h]quinoline]
- Ki: > 1250 nM

SMILES: C=CCC1(C)C(=O)C(C)(C)Nc2c1cc(-c1ccc(O)cc1C)c1c2CCC1 (stereo not drawn) [Example 50, 4-allyl-6-(4-hydroxy-2-methylphenyl)-2,2,4-trimethyl-2,3,4,7,8,9-hexahydro-1H-cyclopenta[h]quinolin-3-one]
- Ki: > 1250 nM

SMILES: C=CCC1(C)C(=O)C(C)(C)Nc2c1cc(-c1c(C)noc1C)c1c2CCC1 (stereo not drawn) [Example 51, 4-allyl-6-(3,5-dimethylisoxazol-4-yl)-2,2,4-trimethyl-2,3,4,7,8,9-hexahydro-1H-cyclopenta[h]quinolin-3-one]
- Ki: > 1250 nM

SMILES: C=CCC1(C)C(=O)C(C)(C)Nc2c1cc(-c1cccc3nccn13)c1c2CCC1 (stereo not drawn) [Example 57, 4-allyl-6-(imidazo[1,2-a]pyridin-5-yl)-2,2,4-trimethyl-2,3,4,7,8,9-hexahydro-1H-cyclopenta[h]quinolin-3-one]
- Ki: > 1250 nM

SMILES: CCC1(C)C(=O)C(C)(C)Nc2c1cc(-c1cccc3nccn13)c1c2CCC1 (stereo not drawn) [Example 58, 4-ethyl-6-(imidazo[1,2-s]pyridin-5-yl)-2,2,4-trimethyl-2,3,4,7,8,9-hexahydro-1H-cyclopenta[h]quinolin-3-one]
- Ki: 1010 nM

SMILES: CC#CCC1(C)C(=O)C(C)(C)Nc2c1cc(-c1cccc3nccn13)c1c2CCC1 (stereo not drawn) [Example 63, 4-(2-butynyl)-6-(imidazo[1,2-a]pyridin-5-yl)-2,2,4-trimethyl-2,3,4,7,8,9-hexahydro-1H-cyclopenta[h]quinolin-3-one]
- Ki: > 1250 nM

SMILES: Cc1noc(C)c1-c1cc2c(c3c1OCO3)NC(C)(C)C(=O)C2(C)C [Example 69, 4-(3,5-dimethylisoxazol-4-yl)-6,6,8,8-tetramethyl-6,7,8,9-tetrahydro-[1,3]dioxolo[4,5-h]quinolin-7-one]
- Ki: > 1250 nM

SMILES: CC1(C)Nc2c(cc(-c3cccc4nccn34)c3c2OCO3)C(C)(C)C1=O [Example 71, 4-(imidazo[1,2-a]pyridin-5-yl)-6,6,8,8-tetramethyl-6,7,8,9-tetrahydro-[1,3]dioxolo[4,5-h]quinolin-7-one]
- Ki: > 1250 nM

SMILES: CC1(C)Nc2c(cc(-c3cccc4ncccc34)c3c2OCO3)C(C)(C)C1=O [Example 72, 6,6,8,8-tetramethyl-4-(quinolin-5-yl)-6,7,8,9-tetrahydro-[1,3]dioxolo[4,5-h]quinolin-7-one]
- Ki: > 1250 nM

SMILES: C=CCC1(C)C(=O)C(C)(C)Nc2c1cc(-c1cccc3cc[nH]c13)c1c2OCO1 (stereo not drawn) [Example 78, 6-allyl-4-(1H-indol-7-yl)-6,8,8-trimethyl-6,7,8,9-tetrahydro-[1,3]dioxolo[4,5-h]quinolin-7-one]
- pKi: < 5.90

SMILES: CC1(C)Nc2c(cc(-c3cccc4nccn34)c3c2OC(F)(F)O3)C(C)(C)C1=O [Example 82, 2,2-difluoro-4-(imidazo[1,2-a]pyridin-5-yl)-6,6,8,8-tetramethyl-6,7,8,9-tetrahydro-[1,3]dioxolo[4,5-h]quinolin-7-one]
- Ki: > 1250 nM

SMILES: Cc1noc(C)c1-c1cc2c(c3c1OCC3)NC(C)(C)C(=O)C2(C)C [Example 84, 6-(3,5-dimethylisoxazol-4-yl)-2,2,4,4-tetramethyl-1,2,3,4,8,9-hexahydro-furo[2,3-h]quinolin-3-one]
- Ki: > 1250 nM

SMILES: CC1(C)Nc2c(cc(-c3cccc4nccn34)c3c2CCO3)C(C)(C)C1=O [Example 88, 6-(imidazo[1,2-a]pyridin-5-yl)-2,2,4,4-tetramethyl-1,2,3,4,8,9-hexahydro-furo[2,3-h]quinolin-3-one]
- Ki: > 1250 nM

SMILES: CC1(C)Nc2c(cc(-c3ccnc4ncccc34)c3c2CCO3)C(C)(C)C1=O [Example 92, 2,2,4,4-tetramethyl-6-([1,8]naphthyridin-4-yl)-1,2,3,4,8,9-hexahydro-furo[2,3-h]quinolin-3-one]
- Ki: > 1250 nM
